Data published in patent publication US7829665B2 (priority 2005, dated 2010).

Target: T1, full-length NS3/NS4A-2 (HCV NS3 protease) (Hepatitis C virus genotype 1a, UniProt P27958)
T1 construct: Recombinant E. coli or Baculovirus full-length NS3 was diluted to 3.33 μM with assay buffer; made in house; host or cells: E. coli or baculovirus (BV) expression system
Assay: NS3-NS4 protease assay / NS3 inhibition assay (RETS1 substrate, fluorescence kinetic read)
Type: biochemical
Conditions: Table 22; read-out: NS3-NS4 IC50
Experimental: NS3 complex formation with NS4A-2.
Recombinant E. coli or Baculovirus full-length NS3 was diluted to 3.33 μM with assay buffer and transferred material to an eppendorf tube and place in water bath in 4° C. refrigerator. The appropriate amount of NS4A-2 to 8.3 mM in assay buffer was added to equal the volume of NS3 in step 2.1.1 (conversion factor—3.8 mg/272 μL assay buffer). The material was transferred to an eppendorf tube and place in water bath in 4° C. refrigerator.
After equilibration to 4° C., equal volumes of NS3 and NS4A-2 solutions were combined in an eppendorf tube, mix gently with a manual pipettor, and incubate mixture for 15 minutes in the 4° C. water bath. Final concentrations in the mixture are 1.67 μM NS3, 4.15 mM NS4A-2 (2485-fold molar excess NS4A-2).
After 15 minutes at 4° C., the NS3/NS4A-2 eppendorf tube was removed and place it in a room temperature water bath for 10 minutes. NS3/NS4A-2 was alliquoted at appropriate volumes and store at −80° C. (E. coli NS3 run at 2 nM in assay, aliquot at 25 μL. BV NS3 run at 3 nM in assay, aliquot at 30 μL).
Sample compounds were dissolved to 10 mM in DMSO then diluted to 2.5 mM (1:4) in DMSO. Typically, compounds were added to an assay plate at 2.5 mM concentration, yielding upon dilution a starting concentration of 50 microM in the assay inhibition curve. Compounds were serial diluted in assay buffer to provide test solutions at lower concentrations.
The E. coli. NS3/NS4A-2 was diluted to 4 nM NS3 (1:417.5 of 1.67 μM stock−18 μL 1.67 μM stock+7497 μL assay buffer). The BV NS3/NS4A-2 was diluted to 6 nM NS3 (1:278.3 of 1.67 μM stock−24 μL 1.67 μM stock+6655 μL assay buffer). Using the manual multichannel pipettor, careful not to introduce bubbles into the plate, add 50 μL assay buffer to wells A01-H01 of a black Costar 96-well polypropylene storage plate.
Using the manual multichannel pipettor, careful not to introduce bubbles into the plate, add 50 μL of diluted NS3/NS4A-2 from step 2.2.6 to wells A02-H12 of plate in step 2.2.7. Using the manual multichannel pipettor, careful not to introduce bubbles into the plate, transfer 25 μL of the wells in drug dilution plate in step 2.2.5 to corresponding wells in assay plate in step 2.2.8. Change tips on multichannel pipettor for each row of compounds transferred. Using the manual multichannel pipettor, careful not to introduce bubbles into the plate, mix the wells from the assay plate in step 2.2.9 by aspirating and dispensing 35 μL of the 75 μL in each well five times. Change tips on multichannel pipettor for each row of wells mixed. Cover plate with a polystyrene plate lid and pre-incubate the plate from step 2.2.10 containing NS3 protease and sample compounds 10 minutes at room temperature. While plate from step 2.2.11 is pre-incubating, dilute RETS1 substrate in a 15 mL polypropylene centrifuge tube. Dilute RETS1 substrate to 8 μM (1:80.75 of 646 μM stock−65 μL 646 μM stock+5184 μL assay buffer).
After the plate in step is done pre-incubating, and using the manual multichannel, add 25 μL of substrate to all wells on the plate. Quickly mix the plate as in step 2.2.10, mixing 65 μL of the 100 μL in the wells.
Read the plate in kinetic mode on the Molecular Devices SpectraMax Gemini XS plate reader. Reader settings: Read time: 30 minutes, Interval: 36 seconds, Reads: 51, Excitation λ: 335 nm, Emission λ: 495 nm, cutoff: 475 nm, Automix: off, Calibrate: once, PMT: high, Reads/well: 6, Vmax pts: 21 or 28/51 depending on length of linearity of reaction
IC50 s are determined using a four parameter curve fit equation, and converted to Ki's using the following Km's: • Full-length E. coli NS3—2.03 μM • Full-length BV NS3—1.74 μM where Ki=IC50/(1+[S]/Km)) • Quantitation by ELISA of the selectable marker protein, Neomycin phosphotransferase II (NPTII) in the HCV Sub-Genomic Replicon, GS4.3

T1 sequence (P27958 1027-1657): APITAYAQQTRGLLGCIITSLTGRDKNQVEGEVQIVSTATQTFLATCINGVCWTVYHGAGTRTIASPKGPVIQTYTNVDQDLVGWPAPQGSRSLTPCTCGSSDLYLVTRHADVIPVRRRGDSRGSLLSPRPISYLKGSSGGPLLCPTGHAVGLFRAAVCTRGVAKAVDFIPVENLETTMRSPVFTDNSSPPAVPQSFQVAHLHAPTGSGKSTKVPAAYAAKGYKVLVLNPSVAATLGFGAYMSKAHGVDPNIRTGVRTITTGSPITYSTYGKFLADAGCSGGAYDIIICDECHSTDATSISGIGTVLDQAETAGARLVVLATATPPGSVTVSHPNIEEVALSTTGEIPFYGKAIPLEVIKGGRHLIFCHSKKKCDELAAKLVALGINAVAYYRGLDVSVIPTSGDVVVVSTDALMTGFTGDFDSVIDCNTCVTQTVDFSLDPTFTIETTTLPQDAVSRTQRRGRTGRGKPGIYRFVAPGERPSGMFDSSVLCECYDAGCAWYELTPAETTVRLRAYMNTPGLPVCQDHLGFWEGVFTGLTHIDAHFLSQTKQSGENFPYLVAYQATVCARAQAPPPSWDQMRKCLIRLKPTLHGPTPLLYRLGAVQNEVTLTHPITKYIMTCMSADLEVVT

SMILES	IC50
CC(C)(C)OC(=O)N[C@H]1CCCCC/C=C\[C@@H]2C[C@@]2(C(=O)NCC2CC2)NC(=O)[C@@H]2CCCN2C1=O [Compound 2302]	< 10 µM

Same assay, conditions: Table 24; read-out: NS3-NS4 IC50

SMILES	IC50
C[C@H](NC(=O)[C@@]12C[C@H]1/C=C\CCCCC[C@H](NC(=O)OC(C)(C)C)C(=O)N1C[C@H](OC(=O)N3Cc4ccccc4C3)C[C@H]1C(=O)N2)c1ccccc1 [Compound 2502]	> 10 µM

Same assay, conditions: recombinant E. coli or Baculovirus full-length NS3 with NS4A-2; read-out: NS3-NS4 IC50

SMILES	IC50
CNC(=O)NC(=O)[C@@]12C[C@H]1/C=C\CCCCC[C@H](NC(=O)OC(C)(C)C)C(=O)N1C[C@H](OC(=O)N3Cc4ccccc4C3)C[C@H]1C(=O)N2 [Compound 703]	< 1 µM
CC(C)(C)OC(=O)N[C@H]1CCCCC/C=C\[C@@H]2C[C@@]2(C(=O)NS(=O)(=O)Cc2ccc(Cl)cc2)NC(=O)[C@@H]2CCCN2C1=O [Compound 2119]	< 1 µM
CCN(C)S(=O)(=O)NC(=O)[C@@]12C[C@H]1/C=C\CCCCC[C@H](NC(=O)OC(C)(C)C)C(=O)N1CCC[C@H]1C(=O)N2 [Compound 400]	< 10 µM
CC(C)(C)OC(=O)N[C@H]1CCCCC/C=C\[C@@H]2C[C@@]2(C(=O)NS(=O)(=O)c2ccccc2F)NC(=O)[C@@H]2CCCN2C1=O [Compound 2124]	< 10 µM
Cc1cc(Cl)cc(Cl)c1S(=O)(=O)NC(=O)[C@@]12C[C@H]1/C=C\CCCCC[C@H](NC(=O)OC(C)(C)C)C(=O)N1CCC[C@H]1C(=O)N2 [Compound 2123]	< 1 µM
CC(C)(C)OC(=O)N[C@H]1CCCCC/C=C\[C@@H]2C[C@@]2(C(=O)NS(=O)(=O)c2ccc(F)cc2)NC(=O)[C@@H]2CCCN2C1=O [Compound 2114]	< 10 µM
CCCNC(=O)[C@@]12C[C@H]1/C=C\CCCCC[C@H](NC1CCC1)C(=O)N1C[C@H](OC(=O)N3Cc4cccc(F)c4C3)C[C@H]1C(=O)N2 [Compound 623]	< 10 µM
COc1ccc(S(=O)(=O)NC(=O)[C@@]23C[C@H]2/C=C\CCCCC[C@H](NC(=O)OC2CCCC2)C(=O)N2C[C@H](OC(=O)N4CCc5ccccc5C4)C[C@H]2C(=O)N3)cc1 [Compound 120]	< 0.1 µM
CC(C)(C)OC(=O)N[C@H]1CCCCC/C=C\[C@@H]2C[C@@]2(C(=O)NS(=O)(=O)NCc2ccccn2)NC(=O)[C@@H]2CCCN2C1=O [Compound 425]	> 10 µM
CC(C)S(=O)(=O)NC(=O)[C@@]12C[C@H]1/C=C\CCCCC[C@H](NC(=O)OC1CCCC1)C(=O)N1C[C@H](OC(=O)N3CCc4ccccc4C3)C[C@H]1C(=O)N2 [Compound 118]	< 0.1 µM
CC(C)(C)OC(=O)N[C@H]1CCCCC/C=C\[C@@H]2C[C@@]2(C(=O)NS(=O)(=O)c2cc(Cl)sc2Cl)NC(=O)[C@@H]2CCCN2C1=O [Compound 2126]	< 10 µM
CN(Cc1ccc(Cl)cc1)S(=O)(=O)NC(=O)[C@@]12C[C@H]1/C=C\CCCCC[C@H](NC(=O)OC(C)(C)C)C(=O)N1CCC[C@H]1C(=O)N2 [Compound 2230]	< 10 µM
CC(C)(C)OC(=O)N[C@H]1CCCCC/C=C\[C@@H]2C[C@@]2(C(=O)NS(=O)(=O)Cc2cccc(Cl)c2)NC(=O)[C@@H]2CCCN2C1=O [Compound 2118]	< 1 µM
C=CCNS(=O)(=O)NC(=O)[C@@]12C[C@H]1/C=C\CCCCC[C@H](NC(=O)OC(C)(C)C)C(=O)N1CCC[C@H]1C(=O)N2 [Compound 2238]	< 1 µM
C[C@H](NS(=O)(=O)NC(=O)[C@@]12C[C@H]1/C=C\CCCCC[C@H](NC(=O)OC(C)(C)C)C(=O)N1CCC[C@H]1C(=O)N2)c1ccccc1 [Compound 416]	< 10 µM
CC[C@@H]1C[C@H]2C(=O)N[C@]3(C(=O)NS(=O)(=O)Nc4ccc(Cl)cc4)C[C@H]3/C=C\CCCCC[C@H](NC(=O)C3CC3)C(=O)N2C1 [Compound 429]	< 10 µM
COc1ccccc1CCNS(=O)(=O)NC(=O)[C@@]12C[C@H]1/C=C\CCCCC[C@H](NC(=O)OC(C)(C)C)C(=O)N1CCC[C@H]1C(=O)N2 [Compound 415]	> 10 µM

SMILES	IC50
CC(C)(C)OC(=O)N[C@H]1CCCCC/C=C\[C@@H]2C[C@@]2(C(=O)NS(=O)(=O)c2cccc(F)c2)NC(=O)[C@@H]2CCCN2C1=O [Compound 2113]	< 10 µM
CC(C)(C)OC(=O)N[C@H]1CCCCC/C=C\[C@@H]2C[C@@]2(C(=O)NCc2ccccn2)NC(=O)[C@@H]2CCCN2C1=O [Compound 500]	> 10 µM
CC(C)(C)OC(=O)NC1CCCCCCCC=CC2CC2(C(=O)NS(=O)(=O)c2cc(Cl)cc(Cl)c2)NC(=O)C2CCCN2C1=O (centres unmarked) [Compound 2108]	< 10 µM
CC(C)(C)OC(=O)N[C@H]1CCCCC/C=C\[C@@H]2C[C@@]2(C(=O)NS(=O)(=O)N2CCCC2)NC(=O)[C@@H]2CCCN2C1=O [Compound 2207]	< 10 µM
C=CCC1(S(=O)(=O)NC(=O)[C@@]23C[C@H]2/C=C\CCCCC[C@H](NC(=O)OC(C)(C)C)C(=O)N2CCC[C@H]2C(=O)N3)CC1 [Compound 305]	< 10 µM
COCC1(S(=O)(=O)NC(=O)[C@@]23C[C@H]2/C=C\CCCCC[C@H](NC(=O)OC(C)(C)C)C(=O)N2CCC[C@H]2C(=O)N3)CC1 [Compound 302]	< 10 µM
CC(C)(C)OC(=O)N[C@H]1CCCCC/C=C\[C@@H]2C[C@@]2(C(=O)NS(=O)(=O)C2CCCCC2)NC(=O)[C@@H]2CCCN2C1=O [Compound 2121]	< 1 µM
O=C1N[C@]2(C(=O)NS(=O)(=O)C3CC3)C[C@H]2/C=C\CCCCC[C@H](Nc2c(N3C4CCC3CC4)c(=O)c2=O)C(=O)N2C[C@H](OC(=O)N3Cc4cccc(F)c4C3)C[C@@H]12 [Compound 199]	< 0.1 µM
CC(C)(C)OC(=O)N[C@H]1CCCCC/C=C\[C@@H]2C[C@@]2(C(=O)NS(=O)(=O)NCCc2ccccc2Cl)NC(=O)[C@@H]2CCCN2C1=O [Compound 402]	> 10 µM
COC[C@@H]1CCCN1S(=O)(=O)NC(=O)[C@@]12C[C@H]1/C=C\CCCCC[C@H](NC(=O)OC(C)(C)C)C(=O)N1CCC[C@H]1C(=O)N2 [Compound 2252]	< 1 µM
CC(C)(C)OC(=O)N[C@H]1CCCCC/C=C\[C@@H]2C[C@@]2(C(=O)NCc2ccncc2)NC(=O)[C@@H]2CCCN2C1=O [Compound 502]	> 10 µM
CN(c1ccccc1Cl)S(=O)(=O)NC(=O)[C@@]12C[C@H]1/C=C\CCCCC[C@H](NC(=O)OC(C)(C)C)C(=O)N1CCC[C@H]1C(=O)N2 [Compound 405]	< 10 µM
O=C(N[C@H]1CCCCC/C=C\[C@@H]2C[C@@]2(C(=O)NS(=O)(=O)c2ccccc2)NC(=O)C2Cc3cc(Oc4cccc(Cl)c4)ccc3CN2C1=O)OC1CCCC1 (stereo partly drawn) [Compound 2004, Cyclopentyl (1aS,9S,19aR,Z)-15-(3-chlorophenoxy)-10,18-dioxo-19a-(phenylsulfonylcarbamoyl)-1a,4,5,6,7,8,9,10,12,17,17a,18,19,19a-tetradecahydro-1H-11,14-diaza-bicyclo[13.1.0]hexadeca-1(15), 2-dieno[11,12-b]isoquinolin-9-ylcarbamate]	< 1 µM
CC(C)(C)OC(=O)N[C@H]1CCCCC/C=C\[C@@H]2C[C@@]2(C(=O)O)NC(=O)[C@@H]2C[C@@H](OC(=O)NCc3ccc(F)cn3)CN2C1=O [Compound 151]	< 10 µM
CC(C)(C)OC(=O)N[C@H]1CCCCC/C=C\[C@@H]2C[C@@]2(C(=O)NS(=O)(=O)N2CCC2)NC(=O)[C@@H]2CCCN2C1=O [Compound 2206]	< 10 µM
CC(C)(C)OC(=O)N[C@H]1CCCCC/C=C\[C@@H]2C[C@@]2(C(=O)NS(=O)(=O)CCc2ccccc2)NC(=O)[C@@H]2CCCN2C1=O [Compound 2127]	< 10 µM
